Measured values published in patent US8618046B2, “Treatment of atherosclerosis with cholesterol ester transport protein mimotopes” (Affiris AG, priority 2007, dated 2013).
“Also recorded” adds a separate entry of the source. Where no end group is shown, it is not given here.

Legend:
injected peptide-BSA = assay: Titer to the injected peptide in sera of immunised animals (peptide ELISA); type: in vivo, mouse; details: FIG. 11; Balb/c mice, 30 μg peptide, Alum as adjuvant; S3 = 2 weeks after 3rd injection; detection αIgG
Protocol: Balb/c mice/30 μg Peptide, 2 injections in 2 week intervals. S3=2 weeks after 3rd injection. Alum as adjuvant. […] Detection: αIgG:
(§1) Inhibiting as well as some non-inhibiting peptides were coupled to KLH and injected into mice (wildtype or CETP-transgenic mice; subcutaneously into the flank or intra-dermaly into the ears) or rabbits (subcutaneously into the flank) together with an appropriate adjuvant (aluminium hydroxide and Gerbu 100 for mice and aluminium hydroxide or CFA/IFA for rabbits).
(§2) Titers to injected peptides as well as to the original CETP epitope were determined. In addition, for selected sera also immune response to CETP protein was measured (Results see FIGS. 7a to 7d and FIGS. 19a to 19e).
Subcutaneous injections in the flank were performed in week 1, week 3 and week 7 with 30 μg peptide-KLH per mouse. Intradermal injections in the ear were performed in week 1, week 3 and week 6 with 10 μg peptide-KLH per mouse. Sera were taken 2 weeks after the 3rd injection. Vaccine formulation with Alum (always 1 mg per mouse): up to 250 μl, injected into one flank. The Alum formulation with 1 ml per mouse (500 μl into each flank) was in 1×PBS as buffer. […]

original epitope (p4073) = assay: Titer to the original CETP epitope in sera of immunised animals (peptide ELISA); type: in vivo, mouse; details: FIG. 11; Balb/c mice, 30 μg peptide, Alum as adjuvant; S3; coating 1 μM p4073-BSA; detection αIgG
Protocol: (§3) Balb/c mice/30 μg Peptide, 2 injections in 2 week intervals. S3=2 weeks after 3rd injection. Alum as adjuvant. Titers against original epitope (p4073) induced by injection of mimotopes. Well coating: 50 μl of 1 μM p4073-BSA or 1 μg/ml activated KLH. Detection: αIgG:
as §1, §2
(§4) Subcutaneous injections in the flank were performed in week 1, week 3 and week 7 with 30 μg peptide-KLH per mouse. Intradermal injections in the ear were performed in week 1, week 3 and week 6 with 10 μg peptide-KLH per mouse. Sera were taken 2 weeks after the 3rd injection. Vaccine formulation with Alum (always 1 mg per mouse): up to 250 μl, injected into one flank. The Alum formulation with 1 ml per mouse (500 μl into each flank) was in 1×PBS as buffer.
Vaccine formulation with Gerbu Adjuvant 100 (Gerbu Cat. Nr. #3100; always 50 μl adjuvant per mouse): 200 μl, 100 μl injected into each flank comprising 1×HEPES as buffer. […]

irrelevant peptide-BSA = assay: Titer to irrelevant peptide in sera of immunised animals (peptide ELISA); type: in vivo, mouse; details: FIG. 11; Balb/c mice, 30 μg peptide, Alum as adjuvant; S3; detection αIgG
Protocol: as §3, §4
Vaccine formulation with Gerbu Adjuvant 100 (Gerbu Cat. Nr. #3100; always 50 μl adjuvant per mouse): 200 μl, 100 μl injected into each flank comprising 1×HEPES as buffer.
Female Balb/c mice, five mice per group, were subcutaneously immunized with 30 μg peptide coupled to KLH. Control groups were administered KLH or C-[…] (SEQ ID NO. 147). As adjuvant alum was used. […] The in vitro ELISA assay to determine the antibody titer was performed with pooled sera after two vaccinations in a two week interval (S2; see FIGS. 7a to 7d). The wells of the ELISA plate were coated with KLH (positive control), mimotope-BSA conjugate, C-[…] (SEQ ID NO. 147) and a irrelevant peptide-BSA conjugate (negative control). The detection was performed with anti-mouse IgG.

recombinant GST-CETP = assay: Anti-protein ELISA of sera of immunised mice, plates coated with recombinant GST-CETP; type: in vivo
Excerpt: (§5) FIGS. 12a and 12b show the in vivo induction of CETP specific antibodies by the administration of the mimotopes of the invention. Titers to p4073 and its correlation to titers to CETP of selected groups (which show high titers against p4073): gr.4, gr.9, gr.10, gr.14, gr.16-20/gr.1 (KLH), gr.2 (original epitope) as controls. Coating: recombinant GST-CETP or purified rabbit CETP, respectively:
(§6) Sera of each group (5 Balb/c mice each) were combined, diluted 1:100 and tested on ELISA plates coated with recombinant GST-CETP or rabbit CETP, respectively. Detection of bound antibodies was with algG.
as §2

rabbit CETP = assay: Anti-protein ELISA of sera of immunised mice, plates coated with purified rabbit CETP; type: in vivo, mouse
Excerpt: as §5, §6, §2

CETP = CETP activity assay: human serum mixed with serum from vaccinated wild-type mice; type: biochemical; details: for inhibition of CETP activity in human serum (in words): FIGS. 15 to 17 and remarks in the example set-up table, sera of vaccinated mice; for CETP activity after addition of serum from vaccinated mice: FIG. 14, 0.6 μl human serum
[1] = FIG. 12b, sera of immunised mice
[2] = FIG. 12b, sera of immunised mice, purified rabbit CETP
[3] = FIG. 13, combined sera of 5 Balb/c mice, diluted 1:100

p4325-KLH: C-FGFPSHLIIDWLQSLS coupled to KLH (CFGFPSHLIIDWLQSLS; also: coupled to KLH)
titer, injected peptide-BSA (injected peptide-BSA): 2.930
titer, original epitope-BSA (original epitope (p4073)): 1.820
titer, irrelevant peptide-BSA (irrelevant peptide-BSA): 10
ELISA signal, recombinant GST-CETP (recombinant GST-CETP; [1]): 0.59
ELISA signal, rabbit CETP (rabbit CETP; [2]): 0.85
inhibition of CETP activity in human serum (in words) (CETP; listed as p4325-KLH/Alum): inhibits significantly CETP activity; also recorded: C-31 and C-33; sera inhibiting

p4343-KLH: C-FYFPAHVSIDWLQSLS coupled to KLH (CFYFPAHVSIDWLQSLS; also: coupled to KLH)
titer, injected peptide-BSA (injected peptide-BSA): 5.580
titer, original epitope-BSA (original epitope (p4073)): 2.900
titer, irrelevant peptide-BSA (irrelevant peptide-BSA): 10
ELISA signal, recombinant GST-CETP (recombinant GST-CETP; [1]): 0.61
ELISA signal, rabbit CETP (rabbit CETP; [2]): 1.05
inhibition of CETP activity in human serum (in words) (CETP): C-33: recogn. protein/not in-

p4361-KLH: C-FGFPAHVFIDWLQSLS coupled to KLH (CFGFPAHVFIDWLQSLS; also: coupled to KLH)
titer, injected peptide-BSA (injected peptide-BSA): 17.940
titer, original epitope-BSA (original epitope (p4073)): 9.530
titer, irrelevant peptide-BSA (irrelevant peptide-BSA): 10
ELISA signal, recombinant GST-CETP (recombinant GST-CETP; FIG. 12a, sera of immunised mice): 1.64
ELISA signal, rabbit CETP (rabbit CETP; FIG. 12a, sera of immunised mice, purified rabbit CETP): 1.51
CETP activity after addition of serum from vaccinated mice (CETP; 0.2 μl mouse serum): reduces significantly said activity
CETP activity after addition of serum from vaccinated mice (CETP; 1.2 μl and 0.6 μl mouse serum): completely inhibits CETP activity
inhibition of CETP activity in human serum (in words) (CETP): inhibits significantly CETP activity

p4362-KLH/Alum: C-FGFPAHVYIDWLQSLS coupled to KLH, Alum (CFGFPAHVYIDWLQSLS; also: coupled to KLH)
ELISA signal, recombinant GST-CETP (recombinant GST-CETP; [3]): 0.86
ELISA signal, rabbit CETP (rabbit CETP; [3]): 0.94
inhibition of CETP activity in human serum (in words) (CETP): inhibits significantly CETP activity
